Test results published in the OPERA property sets (Mansouri et al. 2018).

Compound	logP
CC(C)(C)C(COc1ccc(I)cc1)OC(=O)n1ccnc1 (stereo not drawn)	4.3
CCOC(=O)Cn1cnc(I)c1[N+](=O)[O-]	0.93
CCc1ncc([N+](=O)[O-])n1CCNC(=S)OC	1.46
CN1C(O)C(O)C(O)C(O)C1CO (stereo not drawn)	-2.4
COc1ccc(OCC(OC(=S)n2ccnc2)C(C)(C)C)cc1 (stereo not drawn)	4.31
CC(C)Cc1ccc(CC(=O)O)cc1	3.35
NC(=O)c1cc2ccccc2[nH]1	1.61
COC(=O)Nc1nc2cc(C(=O)c3ccccc3)ccc2[nH]1	2.83
C[C@@H]1O[C@@H](O[C@H]2C[C@@H](O)[C@]3(CO)[C@H]4[C@H](O)C[C@]5(C)[C@@H](C6=CC(=O)OC6)CC[C@]5(O)[C@@H]4CC[C@]3(O)C2)[C@H](O)[C@H](O)[C@H]1O	-2
CCc1c(O)c(=O)ccn1CCO	-0.66
Cc1ccc(C=O)o1	0.67
COc1ccc(OCC(OC(=O)n2ccnc2)C(C)(C)C)cc1 (stereo not drawn)	3.46
OCCN(CCO)Cc1cccc(COc2ccccc2)c1	2.33
CC(C)C1NC(=O)NC1=O (stereo not drawn)	-0.36
CCNc1nc(C)c(C(=O)CCN(C)C)s1	2.21
CCCCCn1ccc(=O)c(O)c1C	1.24
O=C1CN=C(c2ccccn2)c2cc(Br)ccc2N1	2.05
CNC(=O)CCn1ccc(=O)c(O)c1C	-1.1
c1cc(CN2CCCCC2)cc(OCCCNc2nc3ccccc3s2)c1	5.41
CC(C)(C)C(=O)OCC1OC(n2cc(I)c(=O)[nH]c2=O)CC1O (stereo not drawn)	1.34
CCCNC(=O)c1ccco1	1.1
COc1ccc2cc(C(C)C(=O)Oc3ccccc3)ccc2c1 (stereo not drawn)	5.17
COc1ncc(-c2ccncc2)cc1C#N	2.02

Compound	logP
O=C1c2ccccc2C(=O)C1c1cccc(Cl)c1	3.61
CC(C)c1ccc(N)cc1	2.49
NC(=O)OC1c2ccccc2C2CCCCC2C1OC(N)=O (stereo not drawn)	2.17
CC(C)(C)C(COc1ccc(-c2ccccc2)cc1)OC(=O)n1ccnc1 (stereo not drawn)	4.56
CCOC(=O)NC1=NCC(c2ccc(F)cc2)N1C (stereo not drawn)	1.9
CNC(=C[N+](=O)[O-])NCCSCc1nc[nH]c1C	-0.4
CCNP(=O)(OCC)ON=C(C#N)c1ccc(OC)cc1 (stereo not drawn)	2.39
CCOP(=O)(O)Cc1ccc(F)cc1	1.25
CS(=O)(=O)OCCC[Se]CCCOS(C)(=O)=O	0.38
CCn1cc(C(=O)OCOC(C)=O)c(=O)c2ccc(C)nc21	1.21
CCN(CC)C(=O)Nc1ccc(OCC(O)CNC(C)(C)C)c(C(C)=O)c1 (stereo not drawn)	1.92
O=C(OC[C@H]1O[C@@H](n2cc(I)c(=O)[nH]c2=O)C[C@@H]1O)c1ccccc1	1.4
COP(=S)(OC)Oc1cc(Cl)c(Cl)cc1Cl	4.88
O=C(O)CCCCOc1cccc2ccccc12	4
CC(C)CC1NC(=O)NC1=O (stereo not drawn)	0.35
Cc1ccc(C(=O)CCN2CCCCC2)cc1	3.55
O=C(O)Cn1nnc2ccccc21	-1.88
NS(=O)(=O)c1ccc(S(=O)(=O)CCCO)c([N+](=O)[O-])c1	-0.05
COC(=O)NC1=NCC(c2cccc(Br)c2)N1 (stereo not drawn)	2.09
CCC(C(=O)OCc1ccc(C)cc1)C(CO)Cc1cncn1C (stereo not drawn)	2.46
CC(C)c1ccc(OCC(OC(=O)n2ccnc2)C(C)(C)C)cc1 (stereo not drawn)	4.77
Clc1cccc(Cl)c1Cl	4.05
O=c1ccnc2n1CCCC2	-0.14

Compound	logP
Cc1cc(C)c(C)c(C)c1	4.1
CC1(C)S[C@@H]2[C@H](NC(=O)[C@H](N)c3ccc(O)cc3)C(=O)N2[C@H]1C(=O)O	0.87
COc1c(O)c(Cl)c(Cl)c(Cl)c1Cl	4.59
NNC(=O)c1ccc2c(c1)OCO2	1.16
Cc1cc(OCC(=O)O)ccc1S(C)(=O)=O	0.54
CCN1C(=O)NC(Cc2ccccc2)C1=O (stereo not drawn)	1.61
Cc1c(O)c(=O)ccn1C	-0.77
CC(=O)NN1CC=CCC1	0.52
Nc1cccc(Cl)c1Cl	2.82
COC(=O)C(C#N)=Cc1ccc(SC)o1	2.61
CCOP(=O)(OCC)SCS(=O)C(C)(C)C (stereo not drawn)	2.66
O=[N+]([O-])c1cnc(-c2ccc(F)cc2)n1CCO	1.33
CC1CCC=C2N(C)C=C(C(N)=O)C(=O)N21 (stereo not drawn)	0.12
Nc1nc(N)c2ncn([C@H]3C=C[C@@H](CO)O3)c2n1	-0.48
CN1CC(=O)N(c2ccccc2)C1=O	0.14
CC(C)(CN1CCCCC1)C(=O)c1ccccc1	3.78
Cc1cc2c(cc1S(N)(=O)=O)S(=O)(=O)NC=N2	-0.32
N[C@H]1CCc2ccccc2[C@H]1O	0.86
O=C1CC2(CCCC2)C(=O)N1OCc1ccccc1	2.3
CCOC(=O)OCn1c(=O)[nH]cc(F)c1=O	0.15
CCc1c(C)nc2n(c1=O)C(C)CCC2 (stereo not drawn)	1.43
CNC(=O)NC(=O)C(C)(C(=O)OCOC)C1=CCCCC1 (stereo not drawn)	1.8
CC(C(=O)CCN(C)C)N1C(=O)C2CC=CCC2C1=O (stereo not drawn)	0.77

Compound	logP
O=C(O)CCc1ccc(OCc2ccccc2)cc1	3.31
CCc1nc2cccc(C)n2c(=O)c1C	1.87
NS(=O)(=O)c1cc2c(cc1C(F)(F)F)NC=NS2(=O)=O	0.32
Cc1onc(-c2c(F)cccc2Cl)c1C(=O)NC1C(=O)N2C1SC(C)(C)C2C(=O)O (stereo not drawn)	2.58
Nc1cc([N+](=O)[O-])ccc1O	1.26
CCCCCCCC(=O)n1cc(CC(NC(=O)CC2NC(=O)C3C4CCC(CC4)N3C2=O)C(=O)NC(Cc2ccccc2)C(=O)N(C)Cc2ccccc2)c2ccccc21 (stereo not drawn)	7.29
CCc1ccc(OCC(OC(=S)n2ccnc2)C(C)(C)C)cc1 (stereo not drawn)	5.09
CN(Cc1ccccc1)C(=O)C(Cc1ccccc1)NC(=O)C(Cc1cn(C(=O)OC(C)(C)C)c2ccccc12)NC(=O)CC1NC(=O)C2C3CCC(CC3)N2C1=O (stereo not drawn)	5.33
Clc1ccccc1	2.84
CN1CC(O)CN(C)C1=Nc1ncc([N+](=O)[O-])s1 (stereo not drawn)	0.16
CCOP(=S)(OCC)Oc1nc(Cl)c(Cl)cc1Cl	4.96
C=CC(=O)OCCOCCOCCOCCOC(=O)C=C	1.26
OC(Cn1ccnc1)(c1ccc(F)cc1)c1ccc(F)cc1	2.95
CN(C)C(=O)OCc1cccc([N+](=O)[O-])c1	1.98
NS(=O)(=O)c1cc2c(cc1C(F)(F)C(F)(F)F)N=CNS2(=O)=O	1.05
COC(=O)Nc1nc2cc(C(=O)c3ccccc3)ccc2n1C(=O)OC	2.47
C=CCC(CC=C)(C(=O)NC(N)=O)C(=O)OC	1.37
Clc1ccc(-c2c(Cl)ccc(Cl)c2Cl)cc1Cl	6.22
CCC(CC)(C(=O)NC(N)=O)C(=O)OC(C)C	1.99
CCOC(=O)c1ccc(OCC(OC(=O)n2ccnc2)C(C)(C)C)cc1 (stereo not drawn)	4.12
C[C@]12CCC(=O)C=C1CC[C@@H]1[C@@H]2CC[C@@]2(C)[C@H]1CC[C@]2(O)C(=O)CO	3.08
CCOC(=O)C1=C(C)NC(C)=C(C(=O)OCC)C1c1ccccc1/C=C/C(=O)OC(C)(C)C	5.2
CC1CCCC2C1N2CC(O)Cn1ccnc1 (stereo not drawn)	1.55

Compound	logP
COCC(=O)Cn1ccnc1[N+](=O)[O-]	-0.26
Nn1c(S)nnc(-c2cc(Cl)cc(Cl)c2)c1=O	2.67
COc1ccc2cc(C(C)C(=O)OCC=C(C)CCC=C(C)C)ccc2c1 (stereo not drawn)	7.77
CCCCCO	1.51
CCC1(c2ccccc2)C(=O)NC(=O)N1S(=O)(=O)c1ccccc1 (stereo not drawn)	2.44
COC(=O)NC1=NCC(c2cccc(F)c2)N1 (stereo not drawn)	1.41
Cn1c([N+](=O)[O-])cnc1C1CC1	1
N#Cc1ccccc1OCC(O)CNCCNC(=O)Cc1ccc(O)cc1 (stereo not drawn)	0.92
CCOCCCn1ccc(=O)c(O)c1C	0.12
CCCOc1ccc(OCC(OC(=O)n2ccnc2)C(C)(C)C)cc1 (stereo not drawn)	4.1
CNC(=O)c1cccc(Oc2ccccc2)c1	2.86
Cc1[nH]cnc1CSCCNc1[nH]ccc1[N+](=O)[O-]	1.04
O=c1[nH]c(=O)n(Cc2ccccc2)cc1F	0.89
CCCC(=NOCC)C1C(=O)CC(c2ccccc2)(c2ccccc2)OC1=O (stereo not drawn)	4.75
NC(=S)c1ccc([N+](=O)[O-])cc1	1.75
CNC12CC(O)CCC1CCc1ccccc12 (stereo not drawn)	2.37
CCCn1ccc(=O)c(O)c1CC	0.7
CCC(CC)(C(=O)NC(N)=O)C(=O)OCC(=O)OC	0.99
O=C(O)Cc1ccc(C2CCCCC2)cc1	3.91
CCCc1ccc(OCC(OC(=S)n2ccnc2)C(C)(C)C)cc1 (stereo not drawn)	5.77
COc1ccc(COCc2cccc(CN3CCOCC3)c2)cc1	2.83
O=[N+]([O-])c1c(Cl)c(Cl)c(Cl)c(Cl)c1Cl	4.64
O=c1[nH]c(=O)n(C2OC(CO)CC2F)cc1Cl (stereo not drawn)	-0.28

Compound	logP
Cc1nc(N)sc1C(=O)CCN1CCCCC1	2.13
CSc1nnc(C2CCOCC2)c(=O)n1N	1.07
Nc1c(Cl)c(Cl)cc(Cl)c1Cl	4.1
CCC(C(=O)OCc1ccccc1)C(COC(=O)Cc1ccccc1)Cc1cncn1C (stereo not drawn)	4
Nc1c(Cl)c(Cl)c(Cl)c(Cl)c1Cl	4.82
CCc1ccc(OCC(OC(=O)n2ccnc2)C(C)(C)C)cc1 (stereo not drawn)	4.1
O=C(NN1CC=CCC1)C1CC1	1.12
CNC(=S)NCC#CCC(NC(=O)C(Cc1ccc2ccccc2c1)Cc1cccc2ccccc12)C(=O)NC(CC1CCCCC1)C(O)CC(=O)NCCN1CCOCC1 (stereo not drawn)	5.46
CC(=O)NC(CO)C(N)=O (stereo not drawn)	-1.87
CS(=O)(=O)c1ccc(OCC(=O)O)cc1	0.06
NC(=O)NCCCCn1nc(-c2ccccc2)ccc1=O	1.21
CCNP(=O)(OCC)ON=C(C#N)c1ccc([N+](=O)[O-])cc1 (stereo not drawn)	1.76
NCCc1cn2ccccc2n1	0.59
O=c1c2ccccc2nc2n1CCCCC2	2
CCc1cc2n(c1C(=O)c1ccc(F)cc1)CCC2C(=O)O (stereo not drawn)	3.63
CC(=O)CC(c1ccc([N+](=O)[O-])cc1)c1c(O)c2ccccc2oc1=O (stereo not drawn)	1.98
Nc1nc(NCC(O)CO)c(Cl)nc1[N+](=O)[O-] (stereo not drawn)	-0.22
CCCCCCn1ccc(=O)c(O)c1CC	2.28
Clc1cccc2cccc(Cl)c12	4.3
CCc1c(O)c(=O)ccn1CCOC	0.04
NS(=O)(=O)c1cc2c(cc1Br)NC=NS2(=O)=O	0
Nc1nc(=O)c2[nH]c(N)c(Cc3cccs3)c2[nH]1	1.01
CN(C)C(=O)OCc1ccc(C(N)=O)cc1	0.77
